# Measurements reported in the supplement of paper PMC13380429.
# Key:
# Conditions in all cases: 72 h
# [1] = tested on: HepG2; assay: cell viability relative to DMSO; higher = less toxic
# [2] = tested on: Caco-2; assay: as above
# [3] = tested on: U2OS; assay: as above
# [4] = tested on: Calu-3; assay: as above
# [5] = tested on: Vero E6; assay: as above
# [6] = tested on: HepG2; assay: drug sensitivity score (DSS) for viability; higher = more toxic; extreme values may be limits of the assay
# [7] = tested on: Caco-2; assay: as above
# [8] = tested on: U2OS; assay: as above
# [9] = tested on: Calu-3; assay: as above
# [10] = tested on: Vero E6; assay: as above
# [11] = tested on: HepG2; assay: relative viability EC50 (midpoint between 100% and the lowest measured viability); higher = less toxic
# [12] = tested on: Caco-2; assay: as above
# [13] = tested on: U2OS; assay: as above
# [14] = tested on: Calu-3; assay: as above
# [15] = tested on: Vero E6; assay: as above
Compound,cell viability ([1]; 1 nM) [%],cell viability ([1]; 10 nM) [%],cell viability ([1]; 100 nM) [%],cell viability ([1]; 1000 nM) [%],cell viability ([1]; 10000 nM) [%],cell viability ([2]; 1 nM) [%],cell viability ([2]; 10 nM) [%],cell viability ([2]; 100 nM) [%],cell viability ([2]; 1000 nM) [%],cell viability ([2]; 10000 nM) [%],cell viability ([3]; 1 nM) [%],cell viability ([3]; 10 nM) [%],cell viability ([3]; 100 nM) [%],cell viability ([3]; 1000 nM) [%],cell viability ([3]; 10000 nM) [%],cell viability ([4]; 1 nM) [%],cell viability ([4]; 10 nM) [%],cell viability ([4]; 100 nM) [%],cell viability ([4]; 1000 nM) [%],cell viability ([4]; 10000 nM) [%],cell viability ([5]; 1 nM) [%],cell viability ([5]; 10 nM) [%],cell viability ([5]; 100 nM) [%],cell viability ([5]; 1000 nM) [%],cell viability ([5]; 10000 nM) [%],drug sensitivity score [6],drug sensitivity score [7],drug sensitivity score [8],drug sensitivity score [9],drug sensitivity score [10],relative viability EC50 [11] [µM],relative viability EC50 [12] [µM],relative viability EC50 [13] [µM],relative viability EC50 [14] [µM],relative viability EC50 [15] [µM]
N#Cc1ccc(C2CCCc3cncn32)cc1 (stereo not given) [fadrozole],96.9,100,91.6,103,96.2,77.9,87.4,89.6,92.6,82.3,96.2,91.4,96.4,93.4,97.4,91.1,103,96.6,98,95.3,95.4,95.6,89.1,94.9,95.2,0,0,0,0,0,> 10,> 10,> 10,> 10,> 10
Cc1ccc2c(c1CCC(=O)O)CC[C@@H](NS(=O)(=O)c1ccc(Cl)cc1)C2 [terutroban],102,90.7,95.1,103,96.3,93,97.4,100,102,92.2,97.1,96.7,94.4,99.5,93.2,93.2,85.6,92.8,105,97.7,96.8,97.6,95.6,94.6,95.8,0,0,0,0,0,> 10,> 10,> 10,> 10,> 10
CN[C@H](CNC(=O)N1CCC[C@@H]([C@@H](OCCNC(=O)OC)c2cccc(Cl)c2)C1)C[C@H]1CCCOC1,101,108,92.5,98.6,95,98.2,96.1,97.1,90.1,94.5,97.3,98.1,106,97.7,99.1,103,96.2,102,102,98.1,101,101,98.4,107,98.5,0,0,0,0,0,> 10,> 10,> 10,> 10,> 10
O=C(NCCN1CCCCC1)c1ccc(I)cc1 [N-[2-(piperidinylamino)ethyl]-4-iodobenzamide],103,91.8,103,99.1,91.3,96.4,99.6,105,92.1,91.2,103,97.5,97,91.3,95.5,101,89.4,94.6,92.7,116,101,99.6,96.5,99.3,93.4,0,0,0,0,0,> 10,> 10,> 10,> 10,> 10
Cc1cc(/C=C/c2ccc3cc(N(C)C)ccc3[n+]2C)c(C)n1-c1ccccc1 [pyrvinium-pamoate],104,110,98,42,9.6,107,93,102,46.9,13.3,107,106,103,60,3.8,105,101,99.3,63,9.3,106,97.4,100,78,10.6,11.9,11.1,10.6,9.9,8.4,0.745,0.834,1.15,1.16,1.56
"O=C(O)c1cc(O)c2c(Cl)cc(Cl)cc2n1 [5,7-dichlorokynurenic-acid]",96.3,99.3,106,96.5,102,98.7,98.1,96.1,92.1,96.8,96,98.2,98.2,103,95.7,105,99.8,98.8,110,112,95.3,96.4,100,98.6,98.3,0,0,0,0,0,> 10,> 10,> 10,> 10,> 10
CC1=C(C(=O)O)N2C(=O)[C@@H](NC(=O)[C@H](N)c3ccc(O)cc3)[C@H]2SC1 [cefadroxil],90.4,101,95.6,103,105,92.8,93.5,93.1,85.7,99.1,101,96.2,99.4,97,103,100,99.1,107,93.2,106,89.4,101,91.8,98.1,104,0,0,0,0,0,> 10,> 10,> 10,> 10,> 10
CNc1ccc([N+](=O)[O-])cc1-n1cnc(-c2ccc(C(F)(F)F)cc2)c1 [CU-T12-9],108,104,93.8,95.4,91.3,95.4,105,96.8,101,101,103,103,96.2,98.2,100,104,90.9,93.8,94.9,94.9,103,96.4,100,101,102,0,0,0,0,0,> 10,> 10,> 10,> 10,> 10
CC(C)N(CCCNC(=O)Nc1ccc(C(C)(C)C)cc1)C[C@H]1O[C@@H](n2ccc3c(N)ncnc32)[C@H](O)[C@@H]1O,104,105,107,91.5,111,99.7,97.2,95.2,86.5,103,94.1,100,92.9,102,101,96.3,106,92.4,102,108,94.3,97,97.4,99.9,99.5,0,0,0,0,0,> 10,> 10,> 10,> 10,> 10
O=P(O)(O)C(O)(Cc1cnc2ccccn12)P(=O)(O)O [minodronic-acid],99.2,102,106,85.5,101,98.1,103,96.4,103,98.6,100,97.6,95.9,102,102,98.1,95.1,104,96.5,106,106,102,98.6,100,98.1,0,0,0,0,0,> 10,> 10,> 10,> 10,> 10
CN1CCN(Cc2ccc(Nc3ncc(Cl)c(Nc4ccccc4S(=O)(=O)N(C)C)n3)cc2)CC1 [TP-0903],107,109,99.8,50.4,7,109,96.3,102,85.9,33.4,95,98.2,95.1,89.1,21,92.3,92,89,110,80.2,112,105,103,75.8,7.4,11.2,5.9,6.2,0.3,8.8,0.948,1.69,2.06,> 10,1.51
Cc1ccc(-c2ccc(F)cc2COc2ccc(CCC(=O)O)cc2)cc1 [TUG-891],109,96.7,100,117,110,93.8,91.7,87.9,98.5,92.4,97.8,101,94.2,93.6,99.2,93.6,97.7,105,96.6,105,101,102,100,97.9,99,0,0,0,0,0,> 10,> 10,> 10,> 10,> 10
CC(C)CC(N)=O [isovaleramide],103,99.4,101,95.5,101,106,92.6,99.1,99.4,101,102,92.8,99.3,89.1,96.7,113,103,97.1,105,95.4,102,101,102,97.9,93.1,0,0,0,0,0,> 10,> 10,> 10,> 10,> 10
CNCCC(Oc1ccccc1OC)c1ccccc1 (stereo not given) [nisoxetine],113,105,104,108,99,105,96.2,109,98.6,107,105,98.3,102,99,102,94,107,98.2,109,102,107,104,101,103,95.6,0,0,0,0,0,> 10,> 10,> 10,> 10,> 10
C[C@H](Nc1cc(-c2cnn(C)c2)cc(Nc2cnccn2)n1)c1ccc(F)cc1 [NS-018],101,102,102,75.6,3.1,99.1,102,104,83.6,32,97.6,95.1,100,87.6,26.4,96.4,89.1,91.9,62.7,42,106,100,99.7,83.4,14.5,9.1,6.3,6.1,8.1,7.4,1.54,1.58,1.88,0.517,1.76
CCCNC(=O)N1N=C(c2ccc(N)cc2)c2cc3c(cc2C1C)OCO3 (stereo not given) [SYM-2206],91.9,94.8,95.2,93,93.5,96.6,102,95.5,94.2,100,95.1,101,97.4,103,101,86.9,101,109,111,119,98.5,92.5,97.9,88.9,98.6,0,0,0,0,0,> 10,> 10,> 10,> 10,> 10
CCCCCCCCCCCC(=O)O [lauric-acid],105,106,87.4,96,94.3,94.1,102,111,110,98.2,102,95.3,102,97.6,98.1,102,108,101,100,97.5,111,113,101,104,93.5,0,0,0,0,0,> 10,> 10,> 10,> 10,> 10
CNC[C@H](O)c1cccc(O)c1 [phenylephrine],98.7,101,99.1,93.5,111,99.2,91,96.4,92.4,99.7,98.9,96.1,98.9,102,101,103,92.5,95.7,98.9,97.5,96.6,99.7,95.6,93.5,102,0,0,0,0,0,> 10,> 10,> 10,> 10,> 10
CCCCn1c(=O)c2[nH]c(C34CC5CC(CC3C5)C4)nc2n(CCCO)c1=O [PSB-36],105,95.4,103,99.3,97.3,96.5,102,98,101,91.9,98.5,98.9,88.6,89.1,86,99,93.4,98.7,91,80.4,99.3,93.5,98.1,84.9,100,0,0,1.7,1.1,0,> 10,> 10,> 10,> 10,> 10
COc1ccc(C2CNC(=O)NC2)cc1O[C@H]1C[C@@H]2CC[C@H]1C2 [atizoram],99,107,102,94.1,82.8,95.3,96.9,98.6,96.6,102,106,96.5,101,102,103,103,102,96.3,108,108,96.5,105,100,99.5,87.4,1,0,0,0,0.1,> 10,> 10,> 10,> 10,> 10
CN(C)[C@@H]1C(O)=C(C(N)=O)C(=O)[C@@]2(O)C(O)=C3C(=O)c4c(O)cccc4[C@@](C)(O)[C@H]3C[C@@H]12 [tetracycline],107,96.4,107,108,95.4,101,88.2,98.8,97.1,93.8,104,98.5,102,95,97.2,99.6,106,100,107,108,100,102,100,101,95.5,0,0,0,0,0,> 10,> 10,> 10,> 10,> 10
NS(=O)(=O)c1cc2c(cc1C(F)(F)F)NCNS2(=O)=O [hydroflumethiazide],104,103,114,99.3,96.8,99.5,99.1,89.7,98.8,92.2,102,101,95.3,101,98.2,97.1,101,96.7,103,105,105,92.2,98.5,97.2,107,0,0,0,0,0,> 10,> 10,> 10,> 10,> 10
NC(=O)c1ccc(F)c2c1C[C@@H](N(C1CCC1)C1CCC1)CO2 [robalzotan],105,101,99.5,96.9,100,92.7,98.3,97.5,105,99.5,102,107,97.7,105,99.1,98.8,110,94.5,91.2,97.7,102,99.8,107,94.4,103,0,0,0,0,0,> 10,> 10,> 10,> 10,> 10
